Source: patent US11377425B1, “Small molecule modulators of IL-17” (LEO Pharma A/S, priority 2018, dated 2022)

target: T1, human IL-17AA (Homo sapiens, UniProt Q16552); experiment: IL-8 release assay in human epithelial keratinocytes adult (HEKa); format: cell-based; conditions: HEKa cells, 3 ng/mL HEK-human IL-17AA + 10 ng/mL human TNFalpha; read-out: Rel EC50 IL-8 release assay
T1 construct: host or cells: HEK (human embryonic kidney) cells
T1 sequence (Q16552 24-155): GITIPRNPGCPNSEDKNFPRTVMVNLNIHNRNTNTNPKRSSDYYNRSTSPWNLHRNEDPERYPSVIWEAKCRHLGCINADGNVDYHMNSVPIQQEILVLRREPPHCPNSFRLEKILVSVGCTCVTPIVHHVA
Outline: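 IL-8 release, quantified by HTRF and normalized to controls, reports IL-17 signaling in HEKa cells treated with compound plus final 3 ng/mL IL-17AA (HEK-derived) and 10 ng/mL TNF-alpha for 68-72 h; TNF-alpha-only wells set 100% inhibition. Four-parameter logistic fits (r^2>0.9) give relative IC50 and Emax; PrestoBlue flags cytotoxicity.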

| SMILES | EC50 [µM] |
| --- | --- |
| Cc1n[nH]c(C)c1-c1ccc(NC(=O)[C@@H](NC(=O)c2ccccc2)C(C2CC2)C2CC2)cc1 [Example 167, N-[(1S)-1-(dicyclopropylmethyl)-2-[4-(3,5-dimethyl-1H-pyrazol-4-yl)anilino]-2-oxo-ethyl]benzamide] | 0.1 to 1 |
| Cc1n[nH]c(C)c1-c1ccc(NC(=O)[C@@H](NC(=O)C(C)(C)C)C(C2CC2)C2CC2)cc1 [Example 168, N-[(1S)-1-(dicyclopropylmethyl)-2-[4-(3,5-dimethyl-1H-pyrazol-4-yl)anilino]-2-oxo-ethyl]-2,2-dimethyl-propanamide] | > 1 |
| Cc1n[nH]c(C)c1-c1ccc(NC(=O)[C@@H](NC(=O)C2CCC2)C(C2CC2)C2CC2)cc1 [Example 169, N-[(1S)-1-(dicyclopropylmethyl)-2-[4-(3,5-dimethyl-1H-pyrazol-4-yl)anilino]-2-oxo-ethyl]cyclobutane carboxamide] | > 1 |
| Cc1n[nH]c(C)c1-c1ccc(NC(=O)[C@@H](NC(=O)C2CCCC2)C(C2CC2)C2CC2)cc1 [Example 170, N-[(1S)-1-(dicyclopropylmethyl)-2-[4-(3,5-dimethyl-1H-pyrazol-4-yl)anilino]-2-oxo-ethyl]cyclopentane carboxamide] | 0.1 to 1 |
| Cc1n[nH]c(C)c1-c1ccc(NC(=O)[C@@H](NC(=O)c2ccnn2C(C)C#N)C(C2CC2)C2CC2)cc1 (stereo partly drawn) [Example 171, 2-(1-cyanoethyl)-N-[(1S)-1-(dicyclopropylmethyl)-2-[4-(3,5-dimethyl-1H-pyrazol-4-yl)anilino]-2-oxo-ethyl]pyrazole-3-carboxamide] | > 1 |
| Cc1n[nH]c(C)c1-c1ccc(NC(=O)[C@@H](NC(=O)c2ccn(C(C)C#N)n2)C(C2CC2)C2CC2)cc1 (stereo partly drawn) [Example 172, 1-(1-cyanoethyl)-N-[(1S)-1-(dicyclopropylmethyl)-2-[4-(3,5-dimethyl-1H-pyrazol-4-yl)anilino]-2-oxo-ethyl]pyrazole-3-carboxamide] | > 1 |
| Cc1n[nH]c(C)c1-c1ccc(NC(=O)[C@@H](NC(=O)c2ccnn2CCO)C(C2CC2)C2CC2)cc1 [Example 183, N-[(1S)-1-(dicyclopropylmethyl)-2-[4-(3,5-dimethyl-1H-pyrazol-4-yl)anilino]-2-oxo-ethyl]-2-(2-hydroxyethyl)pyrazole-3-carboxamide] | 0.1 to 1 |
| Cc1n[nH]c(C)c1-c1ccc(NC(=O)[C@@H](NC(=O)c2ccnn2C)C(C)C(C)C)cc1 (stereo partly shown) [Example 197] | 0.1 to 1 |
| Cc1n[nH]c(C)c1-c1ccc(NC(=O)[C@@H](NC(=O)c2ccn(C)n2)C(C2CC2)C2CC2)cc1 [Example 198, N-[(1S)-1-(dicyclopropylmethyl)-2-[4-(3,5-dimethyl-1H-pyrazol-4-yl)anilino]-2-oxo-ethyl]-1-methyl-pyrazole-3-carboxamide] | > 1 |
| CCn1ccc(C(=O)N[C@H](C(=O)Nc2ccc(-c3c(C)n[nH]c3C)cc2)C(C2CC2)C2CC2)n1 [Example 199, N-[(1S)-1-(dicyclopropylmethyl)-2-[4-(3,5-dimethyl-1H-pyrazol-4-yl)anilino]-2-oxo-ethyl]-1-ethyl-pyrazole-3-carboxamide] | > 1 |
| Cc1n[nH]c(C)c1-c1ccc(NC(=O)[C@@H](NC(=O)c2ccnn2C)C2C3CC4CC(C3)CC2C4)cc1 (stereo partly drawn) [Example 202, N-[(1S)-1-(2-adamantyl)-2-[4-(3,5-dimethyl-1H-pyrazol-4-yl)anilino]-2-oxo-ethyl]-2-methyl-pyrazole-3-carboxamide] | < 0.1 |
| Cc1n[nH]c(C)c1-c1ccc(NC(=O)[C@@H](NC(=O)c2ccnn2CCC(C)O)[C@H]2CC[C@H](C)CC2)cc1 (stereo partly drawn) [Example 203, N-[(1S)-2-[4-(3,5-dimethyl-1H-pyrazol-4-yl)anilino]-1-(trans-4-methylcyclohexyl)-2-oxo-ethyl]-2-(3-hydroxybutyl)pyrazole-3-carboxamide] | < 0.1 |
| COCCn1nccc1C(=O)N[C@H](C(=O)Nc1ccc(-c2c(C)n[nH]c2C)cc1)C(C1CC1)C1CC1 [Example 206, N-[(1S)-1-(dicyclopropylmethyl)-2-[4-(3,5-dimethyl-1H-pyrazol-4-yl)anilino]-2-oxo-ethyl]-2-(2-methoxyethyl)pyrazole-3-carboxamide] | < 0.1 |
| Cc1n[nH]c(C)c1-c1ccc(NC(=O)[C@@H](NC(=O)c2ccnn2CC#N)C(C2CC2)C2CC2)cc1 [Example 207, 2-(cyanomethyl)-N-[(1S)-1-(dicyclopropylmethyl)-2-[4-(3,5-dimethyl-1H-pyrazol-4-yl)anilino]-2-oxo-ethyl]pyrazole-3-carboxamide] | 0.1 to 1 |
| Cc1n[nH]c(C)c1-c1ccc(NC(=O)[C@@H](NC(=O)c2ccnn2CCCO)[C@H]2CC[C@H](C)CC2)cc1 [Example 208, N-[(1S)-2-[4-(3,5-dimethyl-1H-pyrazol-4-yl)anilino]-1-(trans-4-methylcyclohexyl)-2-oxo-ethyl]-2-(3-hydroxypropyl)pyrazole-3-carboxamide] | < 0.1 |
| Cc1n[nH]c(C)c1-c1ccc(NC(=O)[C@@H](NC(=O)c2ccnn2CCCO)[C@@H]2CC(C)(C)CCC2(F)F)cc1 [Example 209, N-[(1S)-1-[(1S)-2,2-difluoro-5,5-dimethyl-cyclohexyl]-2-[4-(3,5-dimethyl-1H-pyrazol-4-yl)anilino]-2-oxo-ethyl]-2-(3-hydroxypropyl)pyrazole-3-carboxamide] | < 0.1 |
| Cc1n[nH]c(C)c1-c1ccc(NC(=O)[C@@H](NC(=O)c2ccnn2C(C)C)[C@@H]2CC(C)(C)CCC2(F)F)cc1 [Example 212, N-[(1S)-1-[(1S)-2,2-difluoro-5,5-dimethyl-cyclohexyl]-2-[4-(3,5-dimethyl-1H-pyrazol-4-yl)anilino]-2-oxo-ethyl]-2-isopropyl-pyrazole-3-carboxamide] | < 0.1 |
| CCn1nccc1C(=O)N[C@H](C(=O)Nc1ccc(-c2c(C)n[nH]c2C)cc1)[C@@H]1CC(C)(C)CCC1(F)F [Example 213, N-[(1S)-1-[(1S)-2,2-difluoro-5,5-dimethyl-cyclohexyl]-2-[4-(3,5-dimethyl-1H-pyrazol-4-yl)anilino]-2-oxo-ethyl]-2-ethyl-pyrazole-3-carboxamide] | < 0.1 |
| Cc1n[nH]c(C)c1-c1ccc(NC(=O)[C@@H](NC(=O)c2ccnn2C)[C@@H]2CC(C)(C)CCC2(F)F)cc1 [Example 214, N-[(1S)-1-[(1S)-2,2-difluoro-5,5-dimethyl-cyclohexyl]-2-[4-(3,5-dimethyl-1H-pyrazol-4-yl)anilino]-2-oxo-ethyl]-2-methyl-pyrazole-3-carboxamide] | < 0.1 |

The remaining lines, values ahead:

| EC50 [µM] | SMILES |
| --- | --- |
| < 0.1 | Cc1n[nH]c(C)c1-c1ccc(NC(=O)[C@@H](NC(=O)c2ccnn2CCC(O)C(F)(F)F)C(C2CC2)C2CC2)cc1 (stereo partly drawn) [Example 179, N-[(1S)-1-(dicyclopropylmethyl)-2-[4-(3,5-dimethyl-1H-pyrazol-4-yl)anilino]-2-oxo-ethyl]-2-(4,4,4-trifluoro-3-hydroxy-butyl)pyrazole-3-carboxamide] |
| < 0.1 | CCn1nccc1C(=O)N[C@H](C(=O)Nc1ccc(-c2c(C)n[nH]c2C)cc1)[C@@H]1CC2(CC2)CCC1(F)F [Example 180, N-[(1S)-1-[(7S)-6,6-difluorospiro[2.5]octan-7-yl]-2-[4-(3,5-dimethyl-1H-pyrazol-4-yl)anilino]-2-oxo-ethyl]-2-ethyl-pyrazole-3-carboxamide] |
| < 0.1 | Cc1n[nH]c(C)c1-c1ccc(NC(=O)[C@@H](NC(=O)c2ccnn2C(C)C)[C@@H]2CC3(CC3)CCC2(F)F)cc1 [Example 181, N-[(1S)-1-[(7S)-6,6-difluorospiro[2.5]octan-7-yl]-2-[4-(3,5-dimethyl-1H-pyrazol-4-yl)anilino]-2-oxo-ethyl]-2-isopropyl-pyrazole-3-carboxamide] |
| < 0.1 | Cc1n[nH]c(C)c1-c1ccc(NC(=O)[C@@H](NC(=O)c2ccnn2CC(F)(F)F)C(C2CC2)C2CC2)cc1 [Example 184, N-[(1S)-1-(dicyclopropylmethyl)-2-[4-(3,5-dimethyl-1H-pyrazol-4-yl)anilino]-2-oxo-ethyl]-2-(2,2,2-trifluoroethyl)pyrazole-3-carboxamide] |
| < 0.1 | Cc1n[nH]c(C)c1-c1ccc(NC(=O)[C@@H](NC(=O)c2ccnn2CCC(C)O)C(C2CC2)C2CC2)cc1 (stereo partly drawn) [Example 185, N-[(1S)-1-(dicyclopropylmethyl)-2-[4-(3,5-dimethyl-1H-pyrazol-4-yl)anilino]-2-oxo-ethyl]-2-(3-hydroxybutyl)pyrazole-3-carboxamide] |
| < 0.1 | Cc1n[nH]c(C)c1-c1ccc(NC(=O)[C@@H](NC(=O)c2ccnn2CC(C)(F)F)C(C2CC2)C2CC2)cc1 [Example 186, N-[(1S)-1-(dicyclopropylmethyl)-2-[4-(3,5-dimethyl-1H-pyrazol-4-yl)anilino]-2-oxo-ethyl]-2-(2,2-difluoropropyl)pyrazole-3-carboxamide] |
| < 0.1 | Cc1n[nH]c(C)c1-c1ccc(NC(=O)[C@@H](NC(=O)c2ccnn2C(C)C(F)F)C(C2CC2)C2CC2)cc1 (stereo partly drawn) [Example 189, N-[(1S)-1-(dicyclopropylmethyl)-2-[4-(3,5-dimethyl-1H-pyrazol-4-yl)anilino]-2-oxo-ethyl]-2-(2,2-difluoro-1-methyl-ethyl)pyrazole-3-carboxamide] |
| < 0.1 | Cc1n[nH]c(C)c1-c1ccc(NC(=O)[C@@H](NC(=O)c2ccnn2C(C)C)C2C3CC4CC(C3)CC2C4)cc1 (stereo partly drawn) [Example 200, N-[(1S)-1-(2-adamantyl)-2-[4-(3,5-dimethyl-1H-pyrazol-4-yl)anilino]-2-oxo-ethyl]-2-isopropyl-pyrazole-3-carboxamide] |
| < 0.1 | CCn1nccc1C(=O)N[C@H](C(=O)Nc1ccc(-c2c(C)n[nH]c2C)cc1)C1C2CC3CC(C2)CC1C3 (stereo partly drawn) [Example 201, N-[(1S)-1-(2-adamantyl)-2-[4-(3,5-dimethyl-1H-pyrazol-4-yl)anilino]-2-oxo-ethyl]-2-ethyl-pyrazole-3-carboxamide] |
